Source: patent US20240376091A1, “THIADIAZOLEAMIDE DERIVATIVES AND THEIR APPLICATIONS” (ZHEJIANG UNIVERSITY, priority 2021, published 2024)

What was measured:
LNCaP xenograft = LNCaP xenograft model in vivo; settings: intratumor injection 2.5 mg/kg/week
Procedure: Methods: LNCaP cells were injected to the Male CB17 SCID mice (6-8 weeks old). Once tumor size reached target value, the mice were randomized into three groups with 6-8 mice per group. […] The mice weight and tumor volume were periodically recorded. Finally, the tumors were harvested.

AR = biological target: T1, AR (Homo sapiens, UniProt P10275, T878A); assay: AR transcriptional activity, LNCaP-ARR2PB-eGFP reporter cells; format: cell-based; settings: read-out: IC50 AR transcriptional activities
T1 construct: into the androgen-dependent PCa cells (LNCaP); endogenous in cells; host or cells: LNCaP-ARR2PB-eGFP
T1 sequence (P10275 1-920 T878A): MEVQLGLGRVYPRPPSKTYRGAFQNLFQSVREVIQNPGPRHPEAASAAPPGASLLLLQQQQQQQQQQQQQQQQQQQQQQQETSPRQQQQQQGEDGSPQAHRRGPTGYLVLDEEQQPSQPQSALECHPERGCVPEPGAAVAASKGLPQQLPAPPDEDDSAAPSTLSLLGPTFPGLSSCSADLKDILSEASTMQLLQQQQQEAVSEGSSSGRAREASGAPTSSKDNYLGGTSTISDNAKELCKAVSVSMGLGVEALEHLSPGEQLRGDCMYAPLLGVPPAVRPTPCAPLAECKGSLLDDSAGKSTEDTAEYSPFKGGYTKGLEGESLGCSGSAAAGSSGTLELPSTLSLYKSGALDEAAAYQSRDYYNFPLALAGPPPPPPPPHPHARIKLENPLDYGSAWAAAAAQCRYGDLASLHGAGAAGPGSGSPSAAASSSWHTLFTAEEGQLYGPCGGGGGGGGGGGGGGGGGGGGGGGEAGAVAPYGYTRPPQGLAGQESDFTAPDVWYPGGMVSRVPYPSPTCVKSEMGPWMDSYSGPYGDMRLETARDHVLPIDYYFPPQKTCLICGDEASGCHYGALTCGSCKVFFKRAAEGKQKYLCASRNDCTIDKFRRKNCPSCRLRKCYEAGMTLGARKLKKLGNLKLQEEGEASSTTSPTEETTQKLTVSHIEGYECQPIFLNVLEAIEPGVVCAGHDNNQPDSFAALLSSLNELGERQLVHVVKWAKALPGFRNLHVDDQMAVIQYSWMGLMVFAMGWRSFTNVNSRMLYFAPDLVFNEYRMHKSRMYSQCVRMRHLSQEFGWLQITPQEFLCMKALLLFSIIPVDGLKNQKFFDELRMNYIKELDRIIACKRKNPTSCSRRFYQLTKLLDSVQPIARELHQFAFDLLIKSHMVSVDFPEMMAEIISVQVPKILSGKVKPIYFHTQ
Text: Detection principles: We conducted a stable transfection of promoter ARR2PB known for its strong AR responsiveness, into the androgen-dependent PCa cells (LNCaP). The expression of enhanced green fluorescent protein (eGFP) is depending on the degree of activation of AR. Therefore, LNCaP-ARR2PB-eGFP cell line could quantitatively determine the AR antagonistic activities of the compounds by evaluating the expression of eGFP.

IC50 (AR) [µM]	Structure (SMILES)	body weight (LNCaP xenograft)
–	CNC(=O)c1ccc(N2C(=S)N(c3ccc(C#N)c(C(F)(F)F)c3)C(=O)C2(C)C)cc1F [Enzalutamide, reference compound]	no significant loss of body weight
0.48	CC(=O)Cc1nsc(NC(=O)c2cc(-c3cccc(OC(F)(F)F)c3)oc2C)n1 [Compound A-13, 2-Methyl-N-(3-(2-oxopropyl)-1,2,4-thiadiazol-5-yl)-5-(3-(trifluoromethoxy)phenyl)furan-3-carboxamide]	–
35.7	CC(Cc1nsc(NC(=O)c2coc(-c3cccc(OC(F)(F)F)c3)c2)n1)N1CCOCC1 (stereo not drawn) [Compound B-16, N-(3-(2-morpholinopropyl)-1,2,4-thiadiazol-5-yl)-5-(3-(trifluoromethoxy)phenyl)furan-3-carboxamide]	–
35.2	Cc1oc(C(=O)Nc2nc(CN3CCCC3)ns2)cc1-c1cccc(C(F)(F)F)c1 [Compound F-24, 5-Methyl-N-(3-(pyrrolidin-1-ylmethyl)-1,2,4-thiadiazol-5-yl)-4-(3-(trifluoromethyl)phenyl)furan-2-carboxamide]	–
3.38	CC(Cc1nsc(NC(=O)c2cc(-c3cccc(C(F)(F)F)c3)oc2C(F)(F)F)n1)N1CCCC1 (stereo not drawn) [Compound E-6, N-(3-(2-(pyrrolidin-1-yl)propyl)-1,2,4-thiadiazol-5-yl)-2-(trifluoromethyl)-5-(3-(trifluoromethyl)phenyl) furan-3-carboxamide]	–
0.03	[2H]c1c(-c2cccc(OC(F)F)c2)oc(C)c1C(=O)Nc1nc(CC(C)=O)ns1 [Compound A-37, 5-(3-(Difluoromethoxy)phenyl)-2-methyl-N-(3-(2-oxopropyl)-1,2,4-thiadiazol-5-yl)furan-4-d-3-carboxamide]	–
31.4	O=C(Nc1nc(CCl)ns1)c1cc(-c2cccc(C(F)(F)F)c2)co1 [Compound G-19, N-(3-(chloromethyl)-1,2,4-thiadiazol-5-yl)-4-(3-(trifluoromethyl)phenyl)furan-2-carboxamide]	–
34.3	CC(=O)Cc1nsc(NC(=O)c2cc(-c3cccc(C#N)c3)c(C)o2)n1 [Compound F-2, 4-(3-Cyanophenyl)-5-methyl-N-(3-(2-oxopropyl)-1,2,4-thiadiazol-5-yl)furan-2-carboxamide]	–
13.3	Cc1sc(-c2cccc(OC(F)F)c2)cc1C(=O)Nc1nc(CN2CCOCC2)ns1 [Compound C-57, 5-(3-(Difluoromethoxy)phenyl)-2-methyl-N-(3-(morpholinomethyl)-1,2,4-thiadiazol-5-yl)thiophene-3-carboxamide]	–
1.77	CCN(CC)Cc1nsc(NC(=O)c2cc(-c3cccc(C(F)(F)F)c3)oc2C)n1 [Compound A-107, N-(3-((diethylamino)methyl)-1,2,4-thiadiazol-5-yl)-2-methyl-5-(3-(trifluoromethyl)phenyl)furan-3-carboxamide]	–
24.2	CC(Cc1nsc(NC(=O)c2csc(-c3cccc(OC(F)(F)F)c3)c2)n1)N1CCOCC1 [Compound D-16, N-(3-(2-morpholinopropyl)-1,2,4-thiadiazol-5-yl)-5-(3-(trifluoromethoxy)phenyl)thiophene-3-carboxamide]	–
49.5	CC(F)(F)Cc1nsc(NC(=O)c2csc(-c3cccc(C(F)(F)F)c3)c2)n1 [Compound D-35, N-(3-(2,2-difluoropropyl)-1,2,4-thiadiazol-5-yl)-5-(3-(trifluoromethyl)phenyl)thiophene-3-carboxamide]	–
35.5	CC(=O)Cc1nsc(NC(=O)c2cc(-c3cccc(C#N)c3)co2)n1 [Compound G-2, 4-(3-Cyanophenyl)-N-(3-(2-oxopropyl)-1,2,4-thiadiazol-5-yl)furan-2-carboxamide]	–
22.9	Cc1oc(-c2cccc(C(F)(F)F)c2)cc1C(=O)Nc1nc(CCl)ns1 [Compound A-105, N-(3-(chloromethyl)-1,2,4-thiadiazol-5-yl)-2-methyl-5-(3-(trifluoromethyl)phenyl)furan-3-carboxamide]	–
1.62	CC(=O)Cc1nsc(NC(=O)c2cc(-c3cccc(N)c3)oc2C)n1 [Compound A-24, 5-(3-Aminophenyl)-2-methyl-N-(3-(2-oxopropyl)-1,2,4-thiadiazol-5-yl)furan-3-carboxamide]	–
12.3	Cc1sc(-c2cccc(C(F)(F)F)c2)cc1C(=O)Nc1nc(CCl)ns1 [Compound C-40, N-(3-(chloromethyl)-1,2,4-thiadiazol-5-yl)-2-methyl-5-(3-(trifluoromethyl)phenyl)thiophene-3-carboxamide]	–
43.7	COc1cccc(-c2cc(C(=O)Nc3nc(CC(C)=O)ns3)c(C)s2)c1 [Compound C-3, 5-(3-Methoxyphenyl)-2-methyl-N-(3-(2-oxopropyl)-1,2,4-thiadiazol-5-yl)thiophene-3-carboxamide]	–
32.5	CC(=O)Cc1nsc(NC(=O)c2coc(-c3cccc(OC(F)(F)F)c3)c2)n1 [Compound B-4, N-(3-(2-oxopropyl)-1,2,4-thiadiazol-5-yl)-5-(3-(trifluoromethoxy)phenyl)furan-3-carboxamide]	–
0.05	CC(=O)Cc1nsc(NC(=O)c2cc(-c3cccc(OC(F)F)c3)oc2C)n1 [Compound A-14, 5-(3-(Difluoromethoxy)phenyl)-2-methyl-N-(3-(2-oxopropyl)-1,2,4-thiadiazol-5-yl)furan-3-carboxamide]	–
9.33	CC(=O)Cc1nsc(NC(=O)c2cc(-c3cccc(C(F)(F)F)c3)sc2C)n1 [Compound C-1, 2-Methyl-N-(3-(2-oxopropyl)-1,2,4-thiadiazol-5-yl)-5-(3-(trifluoromethyl)phenyl)thiophene-3-carboxamide]	–
4.52	Cc1sc(-c2cccc(C(F)(F)F)c2)cc1C(=O)Nc1nc(CC(C)O)ns1 (stereo not drawn) [Compound C-20, N-(3-(2-hydroxypropyl)-1,2,4-thiadiazol-5-yl)-2-methyl-5-(3-(trifluoromethyl)phenyl)thiophene-3-carboxamide]	–
15.5	CC(O)(Cc1nsc(NC(=O)c2coc(-c3cccc(C(F)(F)F)c3)c2)n1)C(F)(F)F (stereo not drawn) [Compound B-25, N-(3-(3,3,3-trifluoro-2-hydroxy-2-methylpropyl)-1,2,4-thiadiazol-5-yl)-5-(3-(trifluoro-methyl)phenyl)furan-3-carboxamide]	–
0.84	Cc1oc(-c2cccc(C(F)(F)F)c2)cc1C(=O)Nc1nc(CN2CCCC2)ns1 [Compound A-108, 2-Methyl-N-(3-(pyrrolidin-1-ylmethyl)-1,2,4-thiadiazol-5-yl)-5-(3-(trifluoromethyl)phenyl)furan-3-carboxamide]	–

Structure (SMILES)	IC50 (AR) [µM]	body weight (LNCaP xenograft)
CNC(C)Cc1nsc(NC(=O)c2cc(-c3cccc(C(F)(F)F)c3)oc2C)n1 (stereo not drawn) [Compound A-96, 2-Methyl-N-(3-(2-(methylamino)propyl)-1,2,4-thiadiazol-5-yl)-5-(3-(trifluoromethyl)phenyl)furan-3-carboxamide]	0.16	–
